Columns and labels:
Nt-hMLKL^C86A/L89A/D94A = target: T1, Nt-hMLKL^C86A/L89A/D94A (Homo sapiens, UniProt Q8NB16, C86A/D94A/L89A); assay: SPR binding to Nt-hMLKL triple mutant; conditions: CM5 chip
T1 construct: an N-terminal domain (Nt-hMLKL, amino acids 2–154, MW: 23 kDa) involved in oligomerization; His (N); made in house; host or cells: E. coli BL21
Text: The hMLKL plasmid (RC213152, OriGene, Rockville, MD, USA), and recombinant Wt-hMLKL (ab241453, Abcam) and Wt-mMLKL (MBS1379843, MyBioSource, San Diego, CA, USA) proteins were purchased. Nt-hMLKL (2–154), Nt-mMLKL (1–180), and Ct-hMLKL (183–471) were generated using the pBT7-N-His vector. Nt-hMLKL^C86A, Nt-hMLKL^F148A, -hMLKL^C86A/L89A/D94A, and Nt-hMLKL^R145A/R146A/F148A/M150A were generated using the Site-directed Mutagenesis Kit (EZ004S, Enzynomics, S. Korea). These constructs were subcloned into pBT7-N-His and pET-15b plasmid vectors. E. coli BL21 cells transformed with the cloned expression vectors were cultured in LB medium and supplemented with 100 μg/mL ampicillin until an OD at 600 nm of 0.5–0.6 was reached. The cultures were induced by 1 mM IPTG (367-93-1, Sigma-Aldrich). The cells were lysed and centrifuged. The clear supernatants were subjected to Ni-NTA affinity chromatography (175018169, QIAGEN, Hilden, Germany). Plasmids encoding mMLKL (1–464)–gyrase fusion constructs were kindly provided by Prof. […]
The interactions of Wt-hMLKL, Wt-mMLKL, Nt-mMLKL, Nt, and Ct-hMLKL proteins with Re-APO or Ox-APO were detected through SPR analysis using Biacore™ T200 (Cytiva, Marlborough, MA, USA). […] Sensorgrams were recorded and analyzed in real-time using the control software in the BIAcore T200 system. All data were analyzed using the BIA evaluation software (Cytiva).

[1] = test system: J774A.1 cells transfected with Wt-mMLKL (1–464)-gyrase; assay: PI uptake after chemically induced mMLKL-gyrase dimerization; assay type: cell-based, mouse; conditions: 20 μM overnight
Description: PI uptake assays were performed in triplicate to evaluate pore formation on the plasma membrane. THP‑1 cells (2 × 10⁵ cells/well) were seeded in black-walled, clear-bottom 96-well plates and treated with TBZ (TNF, BV6, and z-VAD-FMK) in the presence or absence of candidate compounds for 8 h to induce necroptosis. […] PI (556463, BD Biosciences, San Jose, CA, USA) was added at a final concentration of 1 μg/mL for 10 min before measurement. Fluorescence was recorded using a Varioskan Flash 3001 plate reader (Thermo Fisher Scientific, Waltham, MA, USA).
J774A.1 cells were transfected with plasmids encoding mMLKL (1–464)-gyrase. mMLKL-gyrase expression was induced with 10 ng/mL doxycycline (Dox), followed by 700 nM coumermycin treatment for 4 h to promote dimerization. Then, Ox-APO (20 μM) was added, and the cells were incubated overnight. PI uptake was measured using a microplate reader, and the values were normalized to those of the untreated group. Data represent mean ± SEM (n = 3). **p < 0.01, ***p < 0.001, one-way ANOVA. The expression of mMLKL-gyrase was confirmed by SDS-PAGE of WCLs, followed by immunoblotting with the indicated antibodies. The arrowhead indicates endogenous MLKL, while the tailed arrow denotes the mMLKL–gyrase fusion protein.

[2] = Auto-oxidation of APO in solution by real-time 1D 1H NMR; assay type: physicochemical; conditions: freshly dissolved in DPBS, 25 °C, 36 h
Description: Fig. 2 Effect of redox-sensitive APO on MLKL oligomerization. A Chemical structure of APO. APO undergoes auto-oxidation to form the oxidized form (Ox-APO), while the addition of DTT preserves the reduced form (Re-APO). The red highlights indicate the sites where APO loses hydrogen and electrons during the oxidation process. B Real-time 1D ^1H NMR spectra showing the degree of oxidation of APO. APO was dissolved from its powdered form in DPBS and incubated at 25 °C for 36 h. Real-time 1D ^1H NMR spectra were measured at a 2 h intervals after filtration through a 0.2 μm syringe filter to remove precipitates. […] C MLKL oligomerization is inhibited by APO. THP-1 cells were treated with TBZ and Re-APO or Ox-APO for 8 h. Western blot analysis of WCLs was performed under non-reducing and reducing conditions using the indicated antibodies. Percentage changes of p-MLKL oligomer band relative to GAPDH were shown. The p value for MLKL oligomer band intensity was calculated based on the average intensity of the tetramer and octamer bands. Octa octamer, Tetra tetramer, Mono monomer. Mean ± SEM (n = 3). **p < 0.001, ns not significant, one-way ANOVA. D THP-1 cells were treated with TBZ and Ox-APO or Re-APO for 8 h and then stained with DAPI and MLKL for confocal microscopy. […] The signal intensity of MLKL fluorescence from the plasma membrane to the cytosol was measured using FluoView FV1000 software. […]

T1 sequence (Q8NB16 2-154 C86A/L89A/D94A): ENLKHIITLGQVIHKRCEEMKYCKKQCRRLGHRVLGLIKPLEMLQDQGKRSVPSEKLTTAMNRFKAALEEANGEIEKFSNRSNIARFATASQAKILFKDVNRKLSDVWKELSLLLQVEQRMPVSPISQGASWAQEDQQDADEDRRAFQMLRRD

CN1CCc2cccc3c4c(cc1c23)C=CC(=O)C4=O [Ox-APO]
binding in SPR (Nt-hMLKL^C86A/L89A/D94A): no binding
PI-positive cells after Dox and coumermycin stimulation [1]: markedly reduced

CN1CCc2cccc3c2[C@@H]1Cc1ccc(O)c(O)c1-3 [S62, (6aS)-6-methyl-5,6,6a,7-tetrahydro-4H-dibenzo[de,g]quinoline-10,11-diol]
time to saturation of APO oxidation [2]: 24 h
